According to publication PMC13195669, “GPR3 Ligands Discovered through Combined Virtual and Conformational Biosensor-Based Screening” (Journal of the American Chemical Society, 2026):

Target: T1, GPR3 (Homo sapiens, UniProt P46089, INS231ASEIGTGFPFDPHYVEVLGERMHYVDVGPRDGTPVLFLHGNPTSSYVWRNIIPHVAPTHRCIAPDLIGMGKSDKPDLGYFFDDHVRFMDAFIEALGLEEVVLVIHDWGSALGFHWAKRNPERVKGIAFMEFIRPIPTWDEWPEFARETFQAFRTTDVGRKLIIDQNVFIEGTLPMGVVRPLTEVEMDHYREPFLNPVDREPLWRFPNELPIAGEPANIVALVEEYMDWLHQSPVPKLLFWGTPGVLIPPAEAARLAKSLPNCKAVDIGPGLNLLQEDNPDLIGSEIARWLSTLEISGGS)
T1 construct: ligated to the full-length C-terminus; expressed in transfected cells; some experiments transient
Experiment: BRET-based conformational GPR3 biosensor (GPR3-HaloTag/Nluc) in HEK293A cells
Type: cell-based
Conditions: for EC50: HEK293A cells stably expressing the biosensor, read-out: EC50 at GPR3-HaloTag/Nluc
From the text: To develop a conformational GPR3 biosensor that can be used in a microtiter well plate format, we employed the intramolecular BRET design previously validated for several GPCRs. − The BRET donor NanoLuc was fused to the receptor’s full-length C-terminus and the self-labeling protein tag, HaloTag, was inserted into GPR3′s third intracellular loop between amino acids Arg231 and His232 (Figure a; sequence in Figure S1). […]
Plasmids and molecular cloning […]
Plasmids encoding the conformational biosensors α2AAR- and β2AR-HaloTag/Nluc9 and the Gs heterotrimer dissociation sensor10 were previously described. The expression plasmid encoding N-terminally HA-tagged GPR3 (cat. no.
#GPR003TN00) on a pcDNA3.1+ vector was obtained from the cDNA resource center (cdna.org). The Nluc and HaloTag in-serts were amplified with overhanging restriction sites from β2AAR- HaloTag/Nluc and ligated to the full-length C-terminus or inserted into icl3 of GPR3, respectively, to obtain the conformational biosensor GPR3-HaloTag/Nluc. Point mutants of GPR3-HaloTag/Nluc were generated using the GeneArt Site-directed Mutagenesis System (Thermo Fisher Scientific). All con-structs were verified by sequencing (Eurofins genomics). […]
serum albumin (BSA) were obtained from Sigma Aldrich (Merck KGaA). Dulbecco's Modified Eagle's Medium (DMEM), Dul- […]
Diphenyleneiodonium chloride (DPI) and AF64394 were purchased from Tocris (Bio -Techne). The TMB (3, 3', 5, 5' tetramethyl benzidine) substrate reagent set was […]
were obtained in a single kit from Promega (cat. no. N1662). D-luciferin-sodium and the S1PR1 agonist III were from Med-ChemExpress. The Rluc substrate coelenterazine 400a was from NanoLight Technology (cat. no. 340 -10). White -wall, white - bottomed 96 -well, black -wall, black bottomed and transparent 96 -well microtiter plates were from Brand.
HEK293A cells were used for transient transfection and grown in Dulbecco’s modified Eagle’s medium (DMEM) supplemented with 2 mM glutamine, 10 % fetal calf serum, streptomycin (0.1 mg/mL), and penicillin (100 U/mL) at 37 °C with 5 % CO2. For the generation of stable GPR3 -HaloTag/Nluc cells, HEK293A cells grown in T75 flasks were transfected at a confluence of 40 – […]
Absence of mycoplasma contamination was routinely
Transient transfection and plating
Resuspended cells (300,000 cells/mL) were transfected in suspension with a total of 1 μg DNA/mL suspension using PEI (1 mg/ml stock solution; 3 μL PEI solution per μg DNA). […]
Cells mixed with the transfection reagents were seeded onto poly-D-lysine–precoated, 96-well plates and grown for 48 h at 37 °C with 5 % CO2. Stable α2AAR-, β2AR- or GPR3-HaloTag/Nluc expressing cells were seeded 24 h before the experi-ment at a density of 800,000 cells/mL into white 96-well plates. To monitor changes in BRET in with conformational GPCR […]
experiment. White plates were used for BRET and luminescence measurements, black plates for FRET experiments and trans-parent plates for absorbance-based quantification of receptor surface expression levels.

T1 sequence (P46089 with tags, fused parts or gaps with the stated changes): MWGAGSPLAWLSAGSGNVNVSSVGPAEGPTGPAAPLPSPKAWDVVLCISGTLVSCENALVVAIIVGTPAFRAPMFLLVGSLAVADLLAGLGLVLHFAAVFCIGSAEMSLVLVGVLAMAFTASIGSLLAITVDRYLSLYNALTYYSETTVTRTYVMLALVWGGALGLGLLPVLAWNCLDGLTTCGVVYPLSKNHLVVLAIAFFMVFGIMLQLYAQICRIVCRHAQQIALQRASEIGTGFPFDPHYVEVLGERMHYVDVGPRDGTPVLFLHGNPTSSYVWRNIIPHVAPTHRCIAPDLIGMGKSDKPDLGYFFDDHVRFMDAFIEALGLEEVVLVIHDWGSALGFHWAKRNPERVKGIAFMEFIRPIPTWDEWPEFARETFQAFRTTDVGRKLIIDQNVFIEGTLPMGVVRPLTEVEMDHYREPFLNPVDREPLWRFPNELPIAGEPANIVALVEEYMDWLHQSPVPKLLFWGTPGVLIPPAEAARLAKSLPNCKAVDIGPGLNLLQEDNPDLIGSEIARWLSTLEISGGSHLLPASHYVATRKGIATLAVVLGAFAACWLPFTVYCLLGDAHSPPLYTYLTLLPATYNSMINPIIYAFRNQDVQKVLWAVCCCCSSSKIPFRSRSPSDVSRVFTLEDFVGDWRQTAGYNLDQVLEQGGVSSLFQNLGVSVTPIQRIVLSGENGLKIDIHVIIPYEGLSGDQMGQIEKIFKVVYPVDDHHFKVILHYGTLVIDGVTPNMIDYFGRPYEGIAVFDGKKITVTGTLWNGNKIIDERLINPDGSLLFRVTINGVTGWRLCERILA

| effect of preincubation on OEA and oleamide potency in GPR3 conformation assay (30 µM preincubation) | EC50 [µM] | SMILES |
| --- | --- | --- |
| reduced potency of OEA, but not oleamide | 5 | N=c1n(Cc2ccccc2)c2ccccc2n1CC1CC1 [compound 33] |
| – | 25 | N=c1n(Cc2ccccc2)c2ccccc2n1CC(O)COc1ccc(Cl)cc1 (stereo not shown) [compound 52] |
| – | 85 | Cc1ccc(NC(=O)CN2CCN(C(=O)CCc3ccc(Cl)cc3)CC2)cc1 [compound 115] |
